What was measured:
[1] = system: GDF8 signaling (GDF pSMAD, MPC11); assay: AlphaScreen SureFire SMAD3 (p-Ser423/425) assay, inhibition of GDF8 signaling; format: cell-based; conditions: Mus musculus, MPC-11, inhibition of GDF8 signaling, p-SMAD3 readout
[2] = system: TGF-β signaling (TGF-β pSMAD, MPC-11); assay: AlphaScreen SureFire SMAD3 (p-Ser423/425) assay, inhibition of TGF-β signaling; format: cell-based; conditions: Mus musculus, MPC-11, inhibition of TGF-β signaling, p-SMAD3 readout

CCc1nc(-c2cc(F)cc(Cl)c2)c(-c2ccc3nccnc3c2)[nH]1 [Compound 141, 6-(4-(3-Chloro-5-fluorophenyl)-2-ethyl-1H-imidazol-5-yl)quinoxaline]
IC50 [1]: 660 nM
IC50 [2]: 2910 nM

CCc1nc(-c2cc(C)cc(F)c2)c(-c2ccc3[nH]ncc3c2)[nH]1 [Compound 142, 5-(2-Ethyl-4-(3-fluoro-5-methylphenyl)-1H-imidazol-5-yl)-1H-indazole]
IC50 [1]: 670 nM
IC50 [2]: 4390 nM

CCc1nc(-c2cc(C)cc(F)c2)c(-c2ccc3cn[nH]c3c2)[nH]1 [Compound 143, 6-(2-Ethyl-4-(3-fluoro-5-methylphenyl)-1H-imidazol-5-yl)-1H-indazole]
IC50 [1]: 450 nM
IC50 [2]: 3140 nM

CCc1nc(-c2cc(C)cc(F)c2)c(-c2ccc3ncnn3c2)[nH]1 [Compound 144, 6-(2-Ethyl-4-(3-fluoro-5-methylphenyl)-1H-imidazol-5-yl)-[1,2,4]triazolo[1,5-a]pyridine]
IC50 [1]: 310 nM
IC50 [2]: 1530 nM

CCc1nc(-c2cc(C)cc(F)c2)c(-c2ccc3ncsc3c2)[nH]1 [Compound 145, 6-(2-Ethyl-4-(3-fluoro-5-methylphenyl)-1H-imidazol-5-yl)benzo[d]thiazole]
IC50 [1]: 530 nM
IC50 [2]: 2950 nM

CCc1nc(-c2cc(C)cc(F)c2)c(-c2ccc3nccn3c2)[nH]1 [Compound 146, 6-(2-Ethyl-4-(3-fluoro-5-methylphenyl)-1H-imidazol-5-yl)imidazo[1,2-a]pyridine]
IC50 [1]: 1000 nM
IC50 [2]: 5960 nM

CCc1nc(-c2cc(C)cc(F)c2)c(-c2ccc3nccnc3c2)[nH]1 [Compound 147, 6-(2-Ethyl-4-(3-fluoro-5-methylphenyl)-1H-imidazol-5-yl)quinoxaline]
IC50 [1]: 550 nM
IC50 [2]: 2210 nM

Cc1nc(-c2cc(F)cc(F)c2)c(-c2ccc3[nH]ncc3c2)[nH]1 [Compound 148, 5-(4-(3,5-Difluorophenyl)-2-methyl-1H-imidazol-5-yl)-1H-indazole]
IC50 [1]: 730 nM
IC50 [2]: 2840 nM

CCc1nc(-c2cc(F)cc(F)c2)c(-c2ccc3ncsc3c2)[nH]1 [Compound 149, 6-(4-(3,5-Difluorophenyl)-2-ethyl-1H-imidazol-5-yl)benzo[d]thiazole]
IC50 [1]: 720 nM
IC50 [2]: 3220 nM

FC(F)(F)c1nc(-c2cccc(Cl)c2)c(-c2ccc3ncnn3c2)[nH]1 [Compound 150, 6-(4-(3-Chlorophenyl)-2-(trifluoromethyl)-1H-imidazol-5-yl)-[1,2,4]triazolo[1,5-a]pyridine]
IC50 [1]: 350 nM
IC50 [2]: 850 nM

Fc1ccc(-c2nc(C(F)(F)F)[nH]c2-c2ccc3ncnn3c2)cc1 [Compound 151, 6-(4-(4-Fluorophenyl)-2-(trifluoromethyl)-1H-imidazol-5-yl)-[1,2,4]triazolo[1,5-a]pyridine]
IC50 [1]: 590 nM
IC50 [2]: 1400 nM

Cc1cccc(-c2nc(C(C)C)[nH]c2-c2ccc3ncnn3c2)c1 [Compound 152, 6-(2-Isopropyl-4-(m-tolyl)-1H-imidazol-5-yl)-[1,2,4]triazolo[1,5-a]pyridine]
IC50 [1]: 190 nM
IC50 [2]: 380 nM

Cc1cccc(-c2ncsc2-c2ccc3cn[nH]c3c2)c1 [Compound 153, 5-(1H-indazol-6-yl)-4-(m-tolyl)thiazole]
IC50 [1]: 11.3 nM
IC50 [2]: 207 nM

Cc1cccc(-c2ncsc2-c2ccc3[nH]ncc3c2)c1 [Compound 154, 5-(1H-indazol-5-yl)-4-(m-tolyl)thiazole]
IC50 [1]: 14.5 nM
IC50 [2]: 116 nM

Cc1cc(-c2nc(N)sc2-c2ccc3nccn3c2)ccc1F [Compound 155, 4-(4-fluoro-3-methylphenyl)-5-(imidazo[1,2-a]pyridin-6-yl)thiazol-2-amine]
IC50 [1]: 22.9 nM
IC50 [2]: 72.4 nM

Cc1cc(-c2ncsc2-c2ccc3[nH]ncc3c2)ccc1F [Compound 156, 4-(4-fluoro-3-methylphenyl)-5-(1H-indazol-5-yl)thiazole]
IC50 [1]: 25.3 nM
IC50 [2]: 134 nM

COc1ccc(-c2nc(N)sc2-c2ccc3[nH]ncc3c2)cc1 [Compound 157, 5-(1H-indazol-5-yl)-4-(4-methoxyphenyl)thiazol-2-amine]
IC50 [1]: 25.6 nM
IC50 [2]: 160 nM

Cc1cc(-c2nc(N)sc2-c2ccc3nccnc3c2)ccc1F [Compound 158, 4-(4-fluoro-3-methylphenyl)-5-(quinoxalin-6-yl)thiazol-2-amine]
IC50 [1]: 36 nM
IC50 [2]: 228 nM

Cc1cc(-c2ncsc2-c2ccc3cn[nH]c3c2)ccc1F [Compound 159, 4-(4-fluoro-3-methylphenyl)-5-(1H-indazol-6-yl)thiazole]
IC50 [1]: 36.7 nM
IC50 [2]: 171 nM

Cc1cc(-c2nc(N)sc2-c2ccc3[nH]ncc3c2)ccc1F [Compound 160, 4-(4-fluoro-3-methylphenyl)-5-(1H-indazol-5-yl)thiazol-2-amine]
IC50 [1]: 38.5 nM
IC50 [2]: 99.8 nM

Cc1cccc(-c2ncsc2-c2ccc3ncsc3c2)c1 [Compound 161, 6-(4-(m-tolyl)thiazol-5-yl)benzo[d]thiazole]
IC50 [1]: 46.8 nM
IC50 [2]: 427 nM

Cc1cc(-c2nc(N)sc2-c2ccc3ncsc3c2)ccc1F [Compound 162, 5-(benzo[d]thiazol-6-yl)-4-(4-fluoro-3-methylphenyl)thiazol-2-amine]
IC50 [1]: 52.3 nM
IC50 [2]: 127 nM

COc1ccc(-c2nc(N)sc2-c2ccc3nccn3c2)cc1 [Compound 163, 5-(imidazo[1,2-a]pyridin-6-yl)-4-(4-methoxyphenyl)thiazol-2-amine]
IC50 [1]: 54 nM
IC50 [2]: 168 nM

Nc1nc(-c2cccc(Cl)c2)c(-c2ccc3nccn3c2)s1 [Compound 164, 4-(3-chlorophenyl)-5-(imidazo[1,2-a]pyridin-6-yl)thiazol-2-amine]
IC50 [1]: 66.3 nM
IC50 [2]: 218 nM

Cc1cc(-c2ncsc2-c2ccc3ncsc3c2)ccc1F [Compound 165, 6-(4-(4-fluoro-3-methylphenyl)thiazol-5-yl)benzo[d]thiazole]
IC50 [1]: 69.6 nM
IC50 [2]: 262 nM

Cc1cc(-c2ncsc2-c2ccc3nccn3c2)ccc1F [Compound 167, 4-(4-fluoro-3-methylphenyl)-5-(imidazo[1,2-a]pyridin-6-yl)thiazole]
IC50 [1]: 78 nM
IC50 [2]: 215 nM

Nc1nc(-c2cccc(Cl)c2)c(-c2ccc3[nH]ncc3c2)s1 [Compound 168, 4-(3-chlorophenyl)-5-(1H-indazol-5-yl)thiazol-2-amine]
IC50 [1]: 80 nM
IC50 [2]: 338 nM

Nc1nc(-c2cccc(Cl)c2)c(-c2ccc3nccnc3c2)s1 [Compound 169, 4-(3-chlorophenyl)-5-(quinoxalin-6-yl)thiazol-2-amine]
IC50 [1]: 95.1 nM
IC50 [2]: 236 nM

Nc1nc(-c2ccc(F)cc2)c(-c2ccc3nccnc3c2)s1 [Compound 170, 4-(4-fluorophenyl)-5-(quinoxalin-6-yl)thiazol-2-amine]
IC50 [1]: 98.6 nM
IC50 [2]: 656 nM

Nc1nc(-c2cccc(C(F)(F)F)c2)c(-c2ccc3nccn3c2)s1 [Compound 171, 5-(imidazo[1,2-a]pyridin-6-yl)-4-(3-(trifluoromethyl)phenyl)thiazol-2-amine]
IC50 [1]: 109 nM
IC50 [2]: 423 nM

Nc1nc(-c2cccc(Cl)c2)c(-c2ccc3cn[nH]c3c2)s1 [Compound 172, 4-(3-chlorophenyl)-5-(1H-indazol-6-yl)thiazol-2-amine]
IC50 [1]: 121 nM
IC50 [2]: 909 nM

Source: patent US10287295B2, “TGF-β inhibitors” (Rigel Pharmaceuticals, Inc., priority 2015, dated 2019)
